Data: US7968291B2, “RNA bioassay” (The Hamner Institute for Health Sciences, priority 2002, dated 2011)
Entries after “also recorded” stand apart in the source; their conditions may differ.

System: Sprague_Dawley/Crl:CD (SD)IGS BR rats
Experiment: Liver histopathology of treated rats
Assay type: in vivo, rat
Conditions: 1400 mg/kg oral gavage, 24 hours
Protocol: Four control rats were administered a quantity of methylcellulose vehicle (no acetaminophen) having a volume approximately equal to that received by treated rats. After 24 hours, all rats were euthanized and livers were collected by necropsy. At necropsy, blood samples were collected via the vena cava (approximately 0.5 ml) in microtainer tubes. All livers were then fixed in 10% neutral buffered formalin and processed for histopathology by trimming trimmed, dehydrating, embedding in paraffin, sectioning, mounting on glass slides, and staining with hematoxylin and eosin stains.
Microscopically, there was a moderate centrilobular degeneration which was multifocal in two of the animals and was characterized by hepatocellular degeneration and necrosis, edema fluid, hemorrhages, and infiltration of mononuclear cells and occasional neutrophils in the other two animals. The severity and distribution of the microscopic lesions correlated well with the measured increases in ALT, AST, 5′NT, and albumin RT-PCR.

- Hepatocellular Degeneration (individual rats (animals 1-4)): Diffuse; also recorded: Multifocal
SMILES: CC(=O)Nc1ccc(O)cc1 [acetaminophen]
- Histopathological analysis of liver (four rats): moderate levels of damage
